The values that follow come from US7226748B2, “HSC70 directed diagnostics and therapeutics for multidrug resistant neoplastic disease” (priority 2003, dated 2007).

Data set [1] concerns antigen-positive E3 cell line. The note with it: read-out: IC50 (cytotoxicities); cited from earlier work.
The test system of data set [2] is E3 target cells. The note with it: read-out: IC50 (selective cytotoxicity); cited from earlier work.
The test system of data set [3] is lysosomal hydrolases. The settings on record: cited from earlier work.
Data set [4] has as its system hematological tumor cells. Nature of the data set: HSC70 vaccine protection against hematological tumor cells in mice. The data set is classed as in vivo. The settings on record: mice vaccinated prior to injection of tumor cells versus not vaccinated.

Broadly, the IC50 is the concentration that inhibits the measured activity by half. As for `O=c1[nH]c(=O)n([C@H]2C[C@H](O)[C@@H](CO)O2)cc1F` [FUDR, 5-fluoro-2′-deoxyuridine], the IC50 in data set [1] is 0.4 nM.
As to `CC(=O)[C@]1(O)Cc2c(O)c3c(c(O)c2[C@@H](O[C@H]2C[C@H](N)[C@H](O)[C@H](C)O2)C1)C(=O)c1ccccc1C3=O` [Ida, Idarubicin], the IC50 in data set [2] was 120 nM.
Take Ala-Leu-Dau [Ala-Leu-Dau derivative]: the “time for conversion back to the free drug by lysosomal hydrolases” value in data set [3] was 2 h.
With “HSC70: purified full length murine HSC70 protein used as vaccine antigen, may be administered with an adjuvant”, the tumor size entry in data set [4] was “smaller”.
